Results reported in US12479827B2, “Heteroaromatic carboxamide derivatives as plasma kallikrein inhibitors” (Boehringer Ingelheim International GmbH, priority 2020, dated 2025).

How the values were obtained:
[1] = target: T1, Human PKK (Homo sapiens, UniProt P03952); experiment: Inhibition of PKK using an endpoint assay (human PKK); type: biochemical; settings: fluorogenic substrate H-Pro-Phe-Arg-AMC, 1 h room temperature, method names human or rat PKK, table does not say which
T1 construct: purchased Enzyme Research Laboratories
Procedure, shortened: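 Human PKK inhibition measured in 100 mM Tris, 150 mM NaCl, pH 7.8, 0.1% BSA, 0.05% Tween20, 1% DMSO. Endpoint format: reaction stopped with PPACK II at 1 μM final, fluorescence read at 355 nm excitation/460 nm emission.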

[2] = target: T2, PKK in kaolin activated human platelet poor plasma (Homo sapiens, UniProt P03952); experiment: Inhibition of PKK in kaolin activated human PPP; type: biochemical; settings: 25-750 μg/mL kaolin, global fit, text b200 calls the values IC90;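 note: readout is the rate of fluorogenic substrate cleavage in rfu per min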
T2 construct: Platelet poor plasma (PPP) obtained from human wholeblood; from tissue
Protocol: Platelet poor plasma (PPP) obtained from human wholeblood, anticoagulated with Na-Citrate, is incubated with various concentrations of the test compound together with either 25, 75, 250, or 750 μg/mL kaolin in assay buffer for 20 min at 37° C. such that for each kaolin dose used a concentration response is obtained for the test compound.

T2 sequence (P03952 391-638 limits assumed): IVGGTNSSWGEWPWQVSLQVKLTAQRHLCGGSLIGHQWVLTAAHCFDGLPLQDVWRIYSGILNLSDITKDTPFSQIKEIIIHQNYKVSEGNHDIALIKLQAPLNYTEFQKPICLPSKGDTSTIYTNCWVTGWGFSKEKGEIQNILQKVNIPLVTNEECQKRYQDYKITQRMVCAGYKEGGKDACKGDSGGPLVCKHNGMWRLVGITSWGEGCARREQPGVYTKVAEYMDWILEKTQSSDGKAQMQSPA
T2 sequence (P03952 20-390 limits assumed): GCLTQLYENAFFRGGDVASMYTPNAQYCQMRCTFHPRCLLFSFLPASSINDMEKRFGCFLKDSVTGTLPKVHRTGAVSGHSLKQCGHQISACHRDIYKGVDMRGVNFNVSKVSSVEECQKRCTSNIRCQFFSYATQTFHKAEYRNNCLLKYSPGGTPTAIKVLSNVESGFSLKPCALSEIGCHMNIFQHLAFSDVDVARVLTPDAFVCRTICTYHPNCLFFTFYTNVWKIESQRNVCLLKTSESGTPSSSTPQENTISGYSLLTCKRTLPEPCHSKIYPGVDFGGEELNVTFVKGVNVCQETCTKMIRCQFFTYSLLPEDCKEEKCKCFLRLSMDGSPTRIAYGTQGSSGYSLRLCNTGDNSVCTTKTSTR
T1 sequence (P03952 20-390 limits assumed): as above
T1 sequence (P03952 391-638 limits assumed): as the sequence (P03952 391-638 limits assumed) above

SMILES | IC50 [1] [nM] | IC50 [2] [nM]
Cn1cnc2c1CC[C@H]2NC(=O)c1cnn(Cc2ccc(N3CC4CC4C3)nc2CC#N)c1 (stereo partly drawn) [Example 81, 1-[(6-{3-Azabicyclo[3.1.0]hexan-3-yl}-2-(cyanomethyl)-pyridin-3-yl)methyl]-N-[(4R)-1-methyl-1H,4H,5H,6H-cyclopenta[d]imidazol-4-yl]-1H-pyrazole-4-carboxamide] | 1.3 | 117
C[C@@H](O)c1nc(N2CC3CC3C2)ccc1Cn1cc(C(=O)N[C@@H]2CCc3c2ncn3C)cn1 (stereo partly drawn) [Example 82, 1-[(6-{3-Azabicyclo[3.1.0]hexan-3-yl}-2-[(1R)-1-hydroxy-ethyl]pyridin-3-yl)methyl]-N-[(4R)-1-methyl-1H,4H,5H,6H-cyclopenta[d]imidazol-4-yl]-1H-pyrazole-4-carboxamide] | 0.8 | 117
C[C@H](O)c1nc(N2CC3CC3C2)ccc1Cn1cc(C(=O)N[C@@H]2CCc3c2ncn3C)cn1 (stereo partly drawn) [Example 83, 1-[(6-{3-Azabicyclo[3.1.0]hexan-3-yl}-2-[(1S)-1-hydroxy-ethyl]pyridin-3-yl)methyl]-N-[(4R)-1-methyl-1H,4H,5H,6H-cyclopenta[d]imidazol-4-yl]-1H-pyrazole-4-carboxamide] | 1.7 | 594
Cn1cnc2c1CC[C@H]2NC(=O)c1cnn(Cc2ccc(N3CC4CC4C3)nc2C(C)(C)O)c1 (stereo partly drawn) [Example 84, 1-[(6-{3-Azabicyclo[3.1.0]hexan-3-yl}-2-(2-hydroxypropan-2-yl)pyridin-3-yl)methyl]-N-[(4R)-1-methyl-1H,4H,5H,6H-cyclopenta[d]imidazol-4-yl]-1H-pyrazole-4-carboxamide] | 0.7 | 209
Cn1cnc2c1CC[C@H]2NC(=O)c1cnn(Cc2ccc(N3CC4CC4C3)nc2CCO)c1 (stereo partly drawn) [Example 85, 1-[(6-{3-Azabicyclo[3.1.0]hexan-3-yl}-2-(2-hydroxyethyl)-pyridin-3-yl)methyl]-N-[(4R)-1-methyl-1H,4H,5H,6H-cyclopenta[d]imidazol-4-yl]-1H-pyrazole-4-carboxamide] | 0.8 | 132
Cn1cnc2c1CC[C@H]2NC(=O)c1cn(Cc2ccc(N3CC4(CC4)C3)nc2CO)cn1 [Example 87, 1-[(6-{5-Azaspiro[2.3]hexan-5-yl}-2-(hydroxymethyl)-pyridin-3-yl)methyl]-N-[(4R)-1-methyl-1H,4H,5H,6H-cyclopenta[d]imidazol-4-yl]-1H-imidazole-4-carboxamide] | 3.3 | 177
CC(O)c1nc(N2CC3CC3C2)ccc1Cn1cc(C(=O)N[C@@H]2CCc3c2ncn3C)cn1 (stereo partly drawn) [Example 88, 1-[(6-{3-Azabicyclo[3.1.0]hexan-3-yl}-2-(1-hydroxyethyl)-pyridin-3-yl)methyl]-N-[(4R)-1-methyl-1H,4H,5H,6H-cyclopenta[d]imidazol-4-yl]-1H-pyrazole-4-carboxamide] | 0.9 | 139
Cn1cnc2c1CC[C@H]2NC(=O)c1cnn(Cc2ncc(N3CC4CC4C3)nc2CO)c1 (stereo partly drawn) [Example 89, 1-[(5-{3-Azabicyclo[3.1.0]hexan-3-yl}-3-(hydroxymethyl)-pyrazin-2-yl)methyl]-N-[(4R)-1-methyl-1H,4H,5H,6H-cyclopenta[d]imidazol-4-yl]-1H-pyrazole-4-carboxamide] | 77.5 | 3430
Cn1cnc2c1CC[C@H]2NC(=O)c1cn(Cc2ccc(N3CC4CC4C3)nc2CO)nn1 (stereo partly drawn) [Example 91, 1-[(6-{3-Azabicyclo[3.1.0]hexan-3-yl}-2-(hydroxymethyl)-pyridin-3-yl)methyl]-N-[(4R)-1-methyl-1H,4H,5H,6H-cyclo-penta[d]imidazol-4-yl]-1H-1,2,3-triazole-4-carboxamide] | 2.1 | 439
COCc1nc(N2CC3CC3C2)ccc1Cn1cc(C(=O)N[C@@H]2CCc3c2ncn3C)nn1 (stereo partly drawn) [Example 92, 1-[(6-{3-Azabicyclo[3.1.0]hexan-3-yl}-2-(methoxymethyl)-pyridin-3-yl)methyl]-N-[(4R)-1-methyl-1H,4H,5H,6H-cyclo-penta[d]imidazol-4-yl]-1H-1,2,3-triazole-4-carboxamide] | 2.8 | 307
Cn1cnc2c1CC[C@H]2NC(=O)c1cnn(Cc2ccc(N3CC4C(C3)C4(F)F)nc2CO)c1 (stereo partly drawn) [Example 93, 1-[(6-{6,6-Difluoro-3-azabicyclo[3.1.0]hexan-3-yl}-2-(hydroxymethyl)pyridin-3-yl)methyl]-N-[(4R)-1-methyl-1H,4H,5H,6H-cyclopenta-[d]imidazol-4-yl]-1H-pyrazole-4-carboxamide] | 1.4 | 110
Cc1nc(N2CC3C(C2)C3(F)F)cnc1Cn1cc(C(=O)N[C@@H]2CCc3c2ncn3C)nn1 (stereo partly drawn) [Example 94, 1-[(5-{6,6-Difluoro-3-azabicyclo[3.1.0]hexan-3-yl}-3-methylpyrazin-2-yl)methyl]-N-[(4R)-1-methyl-1H,4H,5H,6H-cyclopenta[d]imidazol-4-yl]-1H-1,2,3-triazole-4-carboxamide] | 10.8 | 1760
COCc1nc(N2CC3C(C2)C3(F)F)ccc1Cn1cnc(C(=O)N[C@@H]2CCc3c2ncn3C)c1 (stereo partly drawn) [Example 95, 1-[(6-{6,6-Difluoro-3-azabicyclo[3.1.0]hexan-3-yl}-2-(methoxymethyl)pyridin-3-yl)methyl]-N-[(4R)-1-methyl-1H,4H,5H,6H-cyclopenta-[d]imidazol-4-yl]-1H-imidazole-4-carboxamide] | 5.5 | 577
Cn1cnc2c1CC[C@H]2NC(=O)c1cn(Cc2ccc(N3CC4C(C3)C4(F)F)nc2CO)cn1 (stereo partly drawn) [Example 96] | 1.5 | 134
COc1nc(N2CC3C(C2)C3(F)F)ccc1Cn1cnc(C(=O)N[C@@H]2CCc3c2ncn3C)c1 (stereo partly drawn) [Example 97, 1-[(6-{6,6-Difluoro-3-azabicyclo[3.1.0]hexan-3-yl}-2-methoxypyridin-3-yl)methyl]-N-[(4R)-1-methyl-1H,4H,5H,6H-cyclopenta[d]imidazol-4-yl]-1H-imidazole-4-carboxamide] | 1.4 | 766
Cn1cnc2c1CC[C@H]2NC(=O)c1cn(Cc2ccc(N3CC4CC4C3)nc2CO)cn1 (stereo partly drawn) [Example 98, 1-[(6-{3-Azabicyclo[3.1.0]hexan-3-yl}-2-(hydroxymethyl)pyridin-3-yl)methyl]-N-[(4R)-1-methyl-1H,4H,5H,6H-cyclopenta[d]imidazol-4-yl]-1H-imidazole-4-carboxamide] | 1.5 | 282
Cn1cnc2c1CC[C@H]2NC(=O)c1cnn(Cc2cnc(N3CC4CC4C3)cc2Cl)c1 (stereo partly drawn) [Example 99, 1-[(6-{3-Azabicyclo[3.1.0]hexan-3-yl}-4-chloropyridin-3-yl)methyl]-N-[(4R)-1-methyl-1H,4H,5H,6H-cyclopenta[d]imidazol-4-yl]-1H-pyrazole-4-carboxamide] | 3.7 | 2170
CCc1nc(N2CC3CC3C2)ccc1Cn1cc(C(=O)N[C@@H]2CCc3c2ncn3C)nn1 (stereo partly drawn) [Example 101, 1-[(6-{3-Azabicyclo[3.1.0]hexan-3-yl}-2-ethylpyridin-3-yl)methyl]-N-[(4R)-1-methyl-1H,4H,5H,6H-cyclopenta[d]imidazol-4-yl]-1H-1,2,3-triazole-4-carboxamide] | 0.6 | 297
CCOc1nc(N2CC3C(C2)C3(F)F)ccc1Cn1cnc(C(=O)N[C@@H]2CCc3c2ncn3C)c1 (stereo partly drawn) [Example 102, 1-[(6-{6,6-Difluoro-3-azabicyclo[3.1.0]hexan-3-yl}-2-ethoxypyridin-3-yl)methyl]-N-[(4R)-1-methyl-1H,4H,5H,6H-cyclopenta[d]imidazol-4-yl]-1H-imidazole-4-carboxamide] | 2.1 | 1440
Cc1c(Cn2cc(C(=O)N[C@@H]3CCc4c3ncn4C)cn2)cnc(N2CC3C(C2)C3(F)F)c1C#N (stereo partly drawn) [Example 103, 1-[(5-Cyano-6-{6,6-difluoro-3-azabicyclo[3.1.0]-hexan-3-yl}-4-methylpyridin-3-yl)methyl]-N-[(4R)-1-methyl-1H,4H,5H,6H-cyclopenta-[d]imidazol-4-yl]-1H-pyrazole-4-carboxamide] | 0.7 | 531
Cn1cnc2c1CC[C@H]2NC(=O)c1cnn(Cc2ccc(N3CC4CC4C3)nc2F)c1 (stereo partly drawn) [Example 104, 1-[(6-{3-Azabicyclo[3.1.0]hexan-3-yl}-2-fluoropyridin-3-yl)methyl]-N-[(4R)-1-methyl-1H,4H,5H,6H-cyclopenta[d]imidazol-4-yl]-1H-pyrazole-4-carboxamide] | 3.2 | 706
Cc1c(Cn2cnc(C(=O)N[C@@H]3CCc4c3ncn4C)c2)cnc(N2CC3C(C2)C3(F)F)c1C#N (stereo partly drawn) [Example 105, 1-[(5-Cyano-6-{6,6-difluoro-3-azabicyclo[3.1.0]-hexan-3-yl}-4-methylpyridin-3-yl)methyl]-N-[(4R)-1-methyl-1H,4H,5H,6H-cyclopenta-[d]imidazol-4-yl]-1H-imidazole-4-carboxamide] | 0.5 | 117
Cc1cc(N2CC3CC3C2)ncc1Cn1cnc(C(=O)N[C@@H]2CCc3c2ncn3C)c1 (stereo partly drawn) [Example 106, 1-[(6-{3-Azabicyclo[3.1.0]hexan-3-yl}-4-methylpyridin-3-yl)methyl]-N-[(4R)-1-methyl-1H,4H,5H,6H-cyclopenta[d]imidazol-4-yl]-1H-imidazole-4-carboxamide] | 9.8 | 1970
CCc1nc(N2CC3C(C2)C3(F)F)ccc1Cn1cc(C(=O)N[C@@H]2CCc3c2ncn3C)nn1 (stereo partly drawn) [Example 109, 1-[(6-{6,6-Difluoro-3-azabicyclo[3.1.0]hexan-3-yl}-2-ethylpyridin-3-yl)methyl]-N-[(4R)-1-methyl-1H,4H,5H,6H-cyclopenta[d]imidazol-4-yl]-1H-1,2,3-triazole-4-carboxamide] | 0.8 | 414
